Reference: patent publication US20230270713A1, “Administration of Resiniferatoxin For Treatment of Bladder Pain or Bladder Cancer” (Sorrento Therapeutics, Inc., priority 2020, published 2023)

Experiments:
[1] = tested on: cats with FIC (Feline Idiopathic Cystitis); experiment: VSOM and Cystitis Events Survey combined effect in FIC cats; format: in vivo, cat; conditions: for Cystitis ≥2 and VSOM ≥2 Point success, cats n/N / Cystitis ≥3 and VSOM ≥2 Point success, cats n/N / Cystitis ≥3 and VSOM ≥2 Point success, percent of cats / Cystitis ≥2 and VSOM ≥2 Point success, percent of cats: Day 28
From the text: Treatment success was defined as “a reduction of at least 2 in total VSOM score at Day 3 and 28 compared to VSOM score at day 0.” A decrease of less than 2, no change, or an increase in total score was defined as treatment failure. Cats presenting an increase in any individual VSOM score were considered a treatment failure regardless of total VSOM score.
The use of the Cystitis Events Survey was exploratory, and no strict definition of success was applied to the results. However, and based on published literature, the results were described as follows: (1) percentage of cats per cohort with an average improvement of 2 or more points and no increase in any individual score on Day 28; and (2) percentage of cats per cohort with an average improvement of 3 or more points and no increase in any individual score on Day 28.
When the results were combined for VSOM improvement of ≥2 and cystitis improvement of ≥3, the effectiveness decreased from 100% to 80% (see Cohort 1). […] Overall, the decrease was approximately 20% in Cohorts 1-2.

[2] = tested on: dogs with bladder transitional cell carcinoma; experiment: Change in lower urinary tract signs in dogs with bladder TCC (Example F); format: in vivo, dog; conditions: for Improvement of at Least 1 Score, dogs n/N / Improvement of at Least 1 Score, percent of dogs / Improvement of at Least 2 Scores, dogs n/N / Improvement of at Least 2 Scores, percent of dogs / Improvement in at least 1 score (lower urinary tract signs), dogs n/N / Improvement in at least 1 score, percent of dogs / Improvement in at least 2 scores (lower urinary tract signs), dogs n/N / Improvement in at least 2 scores, percent of dogs: dogs with bladder TCC; for Improvement in at least 1 score (lower urinary tract signs), dogs n/N / Improvement in at least 1 score, percent of dogs / Improvement in at least 2 scores (lower urinary tract signs), dogs n/N / Improvement in at least 2 scores, percent of dogs: all RTX doses (25-100 μg)
Protocol: Pre-treatment with diphenhydramine HCl intramuscular (2 mg/kg) was administered 30-45 minutes prior to RTX administration. Enrolled dogs were anesthetized and were monitored by auscultation and chest movement observation. Heart rate and oxygenation were monitored using a pulse oximeter throughout the duration of anesthesia. Blood pressure was monitored. Body temperature was maintained using a heated water blanket or equivalent thermal barrier (e.g., Vetko). Lactated Ringers Solution (LRS), or other medically appropriate fluid therapy, were used to maintain adequate hydration (approximately 2 mL/kg/hr intravenous (IV)) and a fluid bolus of LRS (2-5 mL/kg IV) as needed.
RTX was administered as a one-time treatment into the bladder on Day 0 with the option of repeating RTX at a future study day. A Foley urinary catheter was placed using a sterile standard technique. An abdominal ultrasound was concurrently performed to ensure that the tip of the catheter was in the bladder lumen. Urine was removed using a catheter tipped syringe.
RTX was diluted in 0.9% NaCl and then infused into the bladder. The catheter was then flushed with 5-6 mL of 0.9% NaCl to ensure the entire IVP volume was administered. The Foley catheter was capped and remained in place for a period of 30 minutes post-infusion. The bladder was then emptied prior to removal of the Foley catheter. The timing of recovery was managed on an individual basis, but it was recommended to initiate recovery approximately 10 minutes after RTX infusion.
RTX total dose ranged from 25-100 μg (1.17-5.21 μg/kg). RTX was instilled at concentration of 1.0 μg/mL 2.0 μg/mL or 2.5 μg/mL.
Primary effectiveness variables: Evaluations of lower urinary tract signs, as reported by the owner, were used as the primary effectiveness endpoint for the study. The character of urination, frequency of urination (day), frequency of urination (night) and blood in urine (Knapp, 2010) were monitored. Blood in urine was assessed by owner through daily collection of first morning sample and the owner completed the “Owner urine collection log.” Comparisons were made for each parameter between Day 0 and subsequent study visits on Days 7 (±2), 14 (±2), 28 (±2), 56 (±2) and 84 (±2). Treatment success was defined as at least one grade improvement for each parameter.
At each study visit, the investigator graded lower urinary tract signs with input from the owner. Improvement in 1 or 2 grades are summarized by total RTX dose in Table 16 and then comparing those dogs receiving an RTX dose <3 μg/kg and 3 μg/kg in Table 17.

[3] = dogs with bladder TCC evaluable at Days 14-84

C=C(C)[C@]12C[C@@H](C)[C@@]34O[C@](Cc5ccccc5)(O[C@@H]1[C@@H]3C=C(COC(=O)Cc1ccc(O)c(OC)c1)C[C@]1(O)C(=O)C(C)=C[C@@H]41)O2 [RTX, resiniferatoxin]
Cystitis ≥2 and VSOM ≥2 Point success, cats n/N ([1]; 6.25 μg/25 mL (Cohort 2)): 3/6
Cystitis ≥3 and VSOM ≥2 Point success, cats n/N ([1]; 6.25 μg/25 mL (Cohort 2)): 2/6
Cystitis ≥3 and VSOM ≥2 Point success, percent of cats ([1]; 6.25 μg/25 mL (Cohort 2)): (33.3%)
Cystitis ≥2 and VSOM ≥2 Point success, cats n/N ([1]; 12.5 μg/10 mL (Cohort 4)): 4/6
Cystitis ≥2 and VSOM ≥2 Point success, percent of cats ([1]; 12.5 μg/10 mL (Cohort 4)): (66.7%)
Cystitis ≥3 and VSOM ≥2 Point success, cats n/N ([1]; 12.5 μg/10 mL (Cohort 4)): 4/6
Cystitis ≥3 and VSOM ≥2 Point success, percent of cats ([1]; 12.5 μg/10 mL (Cohort 4)): (66.7%)
Cystitis ≥2 and VSOM ≥2 Point success, cats n/N ([1]; 12.5 μg/25 mL (Cohort 3)): 6/6
Cystitis ≥2 and VSOM ≥2 Point success, percent of cats ([1]; 12.5 μg/25 mL (Cohort 3)): (100%)
Cystitis ≥3 and VSOM ≥2 Point success, cats n/N ([1]; 12.5 μg/25 mL (Cohort 3)): 6/6
Cystitis ≥3 and VSOM ≥2 Point success, percent of cats ([1]; 12.5 μg/25 mL (Cohort 3)): (100%)
Cystitis ≥2 and VSOM ≥2 Point success, cats n/N ([1]; 25 μg/25 mL (Cohort 1)): 4/5
Cystitis ≥2 and VSOM ≥2 Point success, percent of cats ([1]; 25 μg/25 mL (Cohort 1)): (80%)
Cystitis ≥3 and VSOM ≥2 Point success, cats n/N ([1]; 25 μg/25 mL (Cohort 1)): 4/5
decrease in effectiveness when VSOM and cystitis results are combined ([1]; Cohorts 1-2, overall): approximately 20%
dogs with improvement in at least 1 urinary symptom grade at each visit [2, 3]: more than 50%
dogs with improvement in at least 2 grades at each visit [2, 3]: more than 40%
Improvement of at Least 1 Score, dogs n/N ([2]; RTX <3 μg/kg, Day 7): 4/7
Improvement of at Least 1 Score, percent of dogs ([2]; RTX <3 μg/kg, Day 7): (57.1%)
Improvement of at Least 2 Scores, dogs n/N ([2]; RTX <3 μg/kg, Day 7): 2/7
Improvement of at Least 2 Scores, percent of dogs ([2]; RTX <3 μg/kg, Day 7): (28.6%)
Improvement of at Least 1 Score, dogs n/N ([2]; RTX <3 μg/kg, Day 14): 5/7
Improvement of at Least 1 Score, percent of dogs ([2]; RTX <3 μg/kg, Day 14): (71.4%)
Improvement of at Least 2 Scores, dogs n/N ([2]; RTX <3 μg/kg, Day 14): 3/7
Improvement of at Least 2 Scores, percent of dogs ([2]; RTX <3 μg/kg, Day 14): (42.9%)
Improvement of at Least 1 Score, dogs n/N ([2]; RTX <3 μg/kg, Day 28): 4/5
Improvement of at Least 1 Score, percent of dogs ([2]; RTX <3 μg/kg, Day 28): (80.0%)
Improvement of at Least 2 Scores, dogs n/N ([2]; RTX <3 μg/kg, Day 28): 3/5
Improvement of at Least 2 Scores, percent of dogs ([2]; RTX <3 μg/kg, Day 28): (60.0%)
Improvement of at Least 1 Score, dogs n/N ([2]; RTX <3 μg/kg, Day 56): 4/5
Improvement of at Least 1 Score, percent of dogs ([2]; RTX <3 μg/kg, Day 56): (80.0%)
Improvement of at Least 2 Scores, dogs n/N ([2]; RTX <3 μg/kg, Day 56): 3/5
Improvement of at Least 2 Scores, percent of dogs ([2]; RTX <3 μg/kg, Day 56): (60.0%)
Improvement of at Least 1 Score, dogs n/N ([2]; RTX <3 μg/kg, Day 84): 2/2
Improvement of at Least 1 Score, percent of dogs ([2]; RTX <3 μg/kg, Day 84): (100.0%)
Improvement of at Least 2 Scores, dogs n/N ([2]; RTX <3 μg/kg, Day 84): 2/2
Improvement of at Least 2 Scores, percent of dogs ([2]; RTX <3 μg/kg, Day 84): (100.0%)
Improvement of at Least 1 Score, dogs n/N ([2]; RTX >= 3 μg/kg, Day 7): 3/7
Improvement of at Least 1 Score, percent of dogs ([2]; RTX >= 3 μg/kg, Day 7): (42.9%)
Improvement of at Least 2 Scores, dogs n/N ([2]; RTX >= 3 μg/kg, Day 7): 2/7
Improvement of at Least 2 Scores, percent of dogs ([2]; RTX >= 3 μg/kg, Day 7): (28.6%)
Improvement of at Least 1 Score, dogs n/N ([2]; RTX >= 3 μg/kg, Day 14): 5/7
Improvement of at Least 1 Score, percent of dogs ([2]; RTX >= 3 μg/kg, Day 14): (71.4%)
Improvement of at Least 2 Scores, dogs n/N ([2]; RTX >= 3 μg/kg, Day 14): 3/7
Improvement of at Least 2 Scores, percent of dogs ([2]; RTX >= 3 μg/kg, Day 14): (42.9%)
Improvement of at Least 1 Score, dogs n/N ([2]; RTX >= 3 μg/kg, Day 28): 4/6
Improvement of at Least 1 Score, percent of dogs ([2]; RTX >= 3 μg/kg, Day 28): (66.7%)
Improvement of at Least 2 Scores, dogs n/N ([2]; RTX >= 3 μg/kg, Day 28): 2/6
Improvement of at Least 2 Scores, percent of dogs ([2]; RTX >= 3 μg/kg, Day 28): (33.3%)
Improvement of at Least 1 Score, dogs n/N ([2]; RTX >= 3 μg/kg, Day 56): 3/5
Improvement of at Least 1 Score, percent of dogs ([2]; RTX >= 3 μg/kg, Day 56): (60.0%)
Improvement of at Least 2 Scores, dogs n/N ([2]; RTX >= 3 μg/kg, Day 56): 2/5
Improvement of at Least 2 Scores, percent of dogs ([2]; RTX >= 3 μg/kg, Day 56): (40.0%)
Improvement of at Least 1 Score, dogs n/N ([2]; RTX >= 3 μg/kg, Day 84): 2/5
Improvement of at Least 1 Score, percent of dogs ([2]; RTX >= 3 μg/kg, Day 84): 40.0%
Improvement of at Least 2 Scores, dogs n/N ([2]; RTX >= 3 μg/kg, Day 84): 1/5
Improvement of at Least 2 Scores, percent of dogs ([2]; RTX >= 3 μg/kg, Day 84): 20.0%
Improvement in at least 1 score (lower urinary tract signs), dogs n/N ([2]; Day 14): 10/14
Improvement in at least 1 score, percent of dogs ([2]; Day 14): 71.4%
Improvement in at least 2 scores (lower urinary tract signs), dogs n/N ([2]; Day 14): 7/14
Improvement in at least 2 scores, percent of dogs ([2]; Day 14): 50.0%
Improvement in at least 1 score (lower urinary tract signs), dogs n/N ([2]; Day 28): 8/11
Improvement in at least 1 score, percent of dogs ([2]; Day 28): 72.7%
Improvement in at least 2 scores (lower urinary tract signs), dogs n/N ([2]; Day 28): 5/11
Improvement in at least 2 scores, percent of dogs ([2]; Day 28): 45.5%
Improvement in at least 1 score (lower urinary tract signs), dogs n/N ([2]; Day 56): 7/10
Improvement in at least 1 score, percent of dogs ([2]; Day 56): 70.0%
Improvement in at least 2 scores (lower urinary tract signs), dogs n/N ([2]; Day 56): 5/10
Improvement in at least 2 scores, percent of dogs ([2]; Day 56): 50.0%
Improvement in at least 1 score (lower urinary tract signs), dogs n/N ([2]; Day 84): 4/7
Improvement in at least 1 score, percent of dogs ([2]; Day 84): 57.1%
Improvement in at least 2 scores (lower urinary tract signs), dogs n/N ([2]; Day 84): 3/7
Improvement in at least 2 scores, percent of dogs ([2]; Day 84): 42.9%
dogs showing improved urine scores after a 2nd RTX administration ([2]; of the 6 dogs with bladder TCC that received a 2nd RTX administration): 1 dog
